# Laboratory results as given in PMC3265452 (PLoS Neglected Tropical Diseases, 2012).
# Where a name gives a salt, the structure may show the parent alone. Read-outs that look alike come from different tables or passages of the source.
# Key:
# AaDOP2 [1] = biological target: T1, AaDOP2 (Aedes aegypti, UniProt H6D5H2); test: cell-based
# AaDOP1 = AaDOP1 (Aedes aegypti, UniProt H6D5H1); test: CRELuc reporter dose-response in HEK293 cells stably expressing AaDOP1; assay type: cell-based
# AaDOP2 [2] = biological target: T1, AaDOP2; test: AaDOP2 antagonist screen of the LOPAC1280 library (HEK-CRELuc-Aadop2 cells, luminescence); assay type: cell-based; conditions: for inhibition at 10 µM: read-out: % of the SCH23390 effect (percent inhibition of receptor response relative to the SCH23390 control)
# AaDOP2 [3] = biological target: T1, AaDOP2; test: cell-based; remark: listed apart in the source
# [4] = HEK293 cells stably expressing CRELuc reporter and AaDOP1, read-out: EC50 values AaDOP1
# [5] = 10 µM compound, 300 nM dopamine, 2 hr, hit = compound effect <20
# T1 sequence (H6D5H2 1-476): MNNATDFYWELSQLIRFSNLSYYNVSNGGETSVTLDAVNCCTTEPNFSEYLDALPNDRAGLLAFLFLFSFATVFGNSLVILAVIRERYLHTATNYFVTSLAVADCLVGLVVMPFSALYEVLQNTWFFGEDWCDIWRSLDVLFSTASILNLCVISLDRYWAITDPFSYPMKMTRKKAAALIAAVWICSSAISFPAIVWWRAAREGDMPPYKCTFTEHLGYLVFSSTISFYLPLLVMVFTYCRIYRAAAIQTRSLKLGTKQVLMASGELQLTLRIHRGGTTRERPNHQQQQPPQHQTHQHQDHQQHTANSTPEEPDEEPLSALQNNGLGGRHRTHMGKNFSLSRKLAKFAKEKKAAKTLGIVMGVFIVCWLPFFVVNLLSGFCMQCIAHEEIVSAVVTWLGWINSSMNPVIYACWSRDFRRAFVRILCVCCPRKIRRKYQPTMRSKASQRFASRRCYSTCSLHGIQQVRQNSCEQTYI
# Sequence of AaDOP1 (H6D5H1 entry or part of it): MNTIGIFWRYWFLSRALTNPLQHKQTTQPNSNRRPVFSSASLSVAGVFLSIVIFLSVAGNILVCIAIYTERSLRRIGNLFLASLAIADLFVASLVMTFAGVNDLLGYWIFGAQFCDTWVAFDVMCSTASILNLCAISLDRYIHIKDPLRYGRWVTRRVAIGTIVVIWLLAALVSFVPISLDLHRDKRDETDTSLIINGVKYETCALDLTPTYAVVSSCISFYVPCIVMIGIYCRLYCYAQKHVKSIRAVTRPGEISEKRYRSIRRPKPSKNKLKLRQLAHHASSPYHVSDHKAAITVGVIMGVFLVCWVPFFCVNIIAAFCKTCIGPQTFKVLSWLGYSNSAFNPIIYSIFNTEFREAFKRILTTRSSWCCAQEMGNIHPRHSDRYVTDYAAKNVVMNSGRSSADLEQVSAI
compound,measurement,setting,value
"Oc1cc2c(cc1O)[C@H]1c3ccccc3CN[C@@H]1CC2 (racemic) [Dihydrexidine, dihydrexidine]",EC50,AaDOP2 [1],0.29 ± 0.054 µM
same,EC50,AaDOP1; [4],0.0069 ± 0.0015 µM
"NC[C@H](O)c1ccc(O)c(O)c1 [Compound 106, L(-)-Norepinephrine bitartrate]","Compound effect (percent receptor signaling in presence of test compound, relative lux units relative to the SCH23390 control)",AaDOP2 [2],115
same,EC50,AaDOP2 [1],≥ 10 µM
same,EC50,AaDOP1,0.76 ± 0.18 µM
"CNC[C@H](O)c1ccc(O)c(O)c1 [Compound 491, (-)-Epinephrine bitartrate]",EC50,AaDOP2 [1],≥ 10 µM
"OCCN1CCN(CC/C=C2/c3ccccc3Sc3ccc(C(F)(F)F)cc32)CC1 [Compound 541, cis-(Z)-Flupenthixol dihydrochloride, reference compound]",inhibition at 10 µM,AaDOP2 [2],88%
same,IC50,AaDOP2 [3],0.02 ± 0.0054 µM
"NCCc1c[nH]cn1 [Compound 596, Histamine dihydrochloride]",EC50,AaDOP2 [1],≥ 10 µM
same,EC50,"AaDOP1; HEK293 cells stably expressing CRELuc reporter and AaDOP1, ≥10 µM considered lacking intrinsic activity, read-out: EC50 values AaDOP1",≥ 10 µM
"NCCc1c[nH]c2ccc(O)cc12 [Compound 613, Serotonin hydrochloride]","Compound effect (percent receptor signaling in presence of test compound, relative lux units relative to the SCH23390 control)",AaDOP2 [2],110
same,EC50,AaDOP2 [1],≥ 10 µM
same,EC50,AaDOP1,≥ 10 µM
"O=C(Nc1ccc([N+](=O)[O-])cc1Cl)c1cc(Cl)ccc1O [Compound 847, Niclosamide, reference compound]","Compound effect (percent receptor signaling in presence of test compound, relative lux units relative to the SCH23390 control)",AaDOP2 [2],5
same,inhibition at 10 µM,AaDOP2 [2],95%
same,IC50,AaDOP2 [3],≥ 10 µM
"Oc1cc(O)cc(/C=C/c2ccc(O)c(O)c2)c1 [Compound 916, Piceatannol, reference compound]","Compound effect (percent receptor signaling in presence of test compound, relative lux units relative to the SCH23390 control)",AaDOP2 [2],2
same,inhibition at 10 µM,AaDOP2 [2],98%
same,IC50,AaDOP2 [3],≥ 10 µM
"Oc1ccc(/C=C/c2cc(O)cc(O)c2)cc1 [Compound 1048, Resveratrol, reference compound]","Compound effect (percent receptor signaling in presence of test compound, relative lux units relative to the SCH23390 control)",AaDOP2 [2],11
same,inhibition at 10 µM,AaDOP2 [2],89%
same,IC50,AaDOP2 [3],≥ 10 µM
"NCCc1ccc(O)cc1 [Compound 1162, 4-Hydroxyphenethylamine hydrochloride]",EC50,AaDOP2 [1],≥ 10 µM
same,EC50,AaDOP1,≥ 10 µM
"Cc1cc(C(C)(C)C)cc(C)c1CC1=NCCN1 [Compound 1271, Xylometazoline hydrochloride]","Compound effect (percent receptor signaling in presence of test compound, relative lux units relative to the SCH23390 control)",AaDOP2 [2],85
"CCCn1c(=O)c2[nH]c(-c3ccc(OCC(=O)NCCN)cc3)nc2n(CCC)c1=O [Compound 1272, Xanthine amine congener]","Compound effect (percent receptor signaling in presence of test compound, relative lux units relative to the SCH23390 control)",AaDOP2 [2],90
"COC(=O)[C@@H]1[C@H]2C[C@H]3c4[nH]c5ccccc5c4CCN3C[C@@H]2CC[C@@H]1O [Compound 1273, Yohimbine hydrochloride]","Compound effect (percent receptor signaling in presence of test compound, relative lux units relative to the SCH23390 control)",AaDOP2 [2],85
"COc1ccc(CCN(C)CCc2ccc(OC)c(OC)c2)cc1OC.Cl [Compound 1274, YS-035 hydrochloride]","Compound effect (percent receptor signaling in presence of test compound, relative lux units relative to the SCH23390 control)",AaDOP2 [2]; [5],93%
"OCc1ccc(-c2nn(Cc3ccccc3)c3ccccc23)o1 [Compound 1275, YC-1]","Compound effect (percent receptor signaling in presence of test compound, relative lux units relative to the SCH23390 control)",AaDOP2 [2],136
"CCCOc1ccccc1-c1nc2nn[nH]c2c(=O)[nH]1 [Compound 1276, Zaprinast]","Compound effect (percent receptor signaling in presence of test compound, relative lux units relative to the SCH23390 control)",AaDOP2 [2],115
"NS(=O)(=O)Cc1noc2ccccc12 [Compound 1277, Zonisamide sodium]","Compound effect (percent receptor signaling in presence of test compound, relative lux units relative to the SCH23390 control)",AaDOP2 [2],130
"COc1cc(-c2ccc(=O)[nH]n2)ccc1OC(F)F [Compound 1278, Zardaverine]","Compound effect (percent receptor signaling in presence of test compound, relative lux units relative to the SCH23390 control)",AaDOP2 [2],125
"CN1CCN(C(=O)OC2c3nccnc3C(=O)N2c2ccc(Cl)cn2)CC1 (stereo not drawn) [Compound 1279, Zopiclone]","Compound effect (percent receptor signaling in presence of test compound, relative lux units relative to the SCH23390 control)",AaDOP2 [2],99
"CN(C)C/C=C(/c1ccc(Br)cc1)c1cccnc1 [Compound 1280, Zimelidine dihydrochloride]","Compound effect (percent receptor signaling in presence of test compound, relative lux units relative to the SCH23390 control)",AaDOP2 [2],80
Oc1cc2c(cc1O)C(c1ccccc1)CNCC2 (stereo not drawn) [SKF 38393],EC50,AaDOP2 [1],≥ 10 µM
same,EC50,AaDOP1; [4],0.31 ± 0.046 µM
(+)-Catechin Hydrate [Compound 230],"Compound effect (percent receptor signaling in presence of test compound, relative lux units relative to the SCH23390 control)",AaDOP2 [2]; [5],111%
"(-)-Bicuculline methbromide, 1(S), 9(R) [Compound 202]","Compound effect (percent receptor signaling in presence of test compound, relative lux units relative to the SCH23390 control)",AaDOP2 [2],94
(-)-Eseroline fumarate [Compound 504],"Compound effect (percent receptor signaling in presence of test compound, relative lux units relative to the SCH23390 control)",AaDOP2 [2],56
(-)-Perillic acid [Compound 965],"Compound effect (percent receptor signaling in presence of test compound, relative lux units relative to the SCH23390 control)",AaDOP2 [2]; [5],87%
(-)-Scopolamine methyl nitrate [Compound 1087],"Compound effect (percent receptor signaling in presence of test compound, relative lux units relative to the SCH23390 control)",AaDOP2 [2],113
"(±)-PD 128,907 hydrochloride [Compound 1024]","Compound effect (percent receptor signaling in presence of test compound, relative lux units relative to the SCH23390 control)",AaDOP2 [2]; [5],95%
(±)-Pindobind [Compound 1010],"Compound effect (percent receptor signaling in presence of test compound, relative lux units relative to the SCH23390 control)",AaDOP2 [2]; [5],65%
"Adenosine 3',5'-cyclic monophosphate [Compound 105]","Compound effect (percent receptor signaling in presence of test compound, relative lux units relative to the SCH23390 control)",AaDOP2 [2],100
Ceramide [Compound 235],"Compound effect (percent receptor signaling in presence of test compound, relative lux units relative to the SCH23390 control)",AaDOP2 [2]; [5],87%
